From paper PMC8317962, “Development of tacrine clusters as positively cooperative systems for the inhibition of acetylcholinesterase” (Journal of Enzyme Inhibition and Medicinal Chemistry, 2021)
Where two headings read alike, the source gives them in different places.

Columns and labels:
[1] = molecular target: T1, acetylcholinesterase from Electrophorus electricus (Electrophorus electricus, UniProt O42275); assay: biochemical; assay type: biochemical; settings: for IC50: read-out: AChE IC50; for AChE rp (relative inhibition potency): rp = IC50 (mono-tacrine)/IC50 (tetra-tacrine); for AChE rp/n (inhibition potency on valency-corrected basis): rp/n = rp/number of tacrine rings; for less active when connected to the central multivalent sugar scaffold: from rp/n of the corresponding tetra-tacrine
T1 construct: purchased Sigma Aldrich type V-S
Protocol: (§1) For the assessment of enzymatic inhibition, commercially available acetylcholinesterase from Electrophorus electricus (type V-S, Sigma Aldrich) was used, conducting minor modifications on Ellman’s protocol. […] Enzymatic activities were measured in a UV–Vis instrument (Hitachi U-2900) using PS cuvettes containing […] phosphate buffer (pH 8.0), 5,5′-dithiobis(2-nitrobenzoic acid) (DTNB, 0.88 mM, buffer solution), acetylthiocholine iodide as a model substrate, inhibitor, properly diluted aqueous enzyme solution, and water up to 1.2 ml. Solutions of the enzymes were prepared so as to keep the reaction rate within 0.12–0.15 Abs/min when [S] = 4 × KM.
Calculation of IC50 values was accomplished by plotting %I vs. log[I] and adjusting to a second-order equation.
(§2) Data are expressed as the mean ± SD.

[2] = molecular target: T1, acetylcholinesterase from Electrophorus electricus; assay: Kinetic study of AChE inhibition mode (Cornish-Bowden plots, inhibition constants); assay type: biochemical; settings: for Ki: mean ± SD
Protocol: as §1, with “KM. The formation of the chromophore was monitored during 125 s at 405 nm and 25 °C.” for “KM.”
For the calculation of the kinetic parameters of the free enzyme, and in the presence of 3a, five different substrate concentrations, ranging from ¼ KM to 4 × KM were used. Cornish-Bowden method[26] provided the mode of inhibition of 3a; for that purpose, two different plots were used: 1/v vs. [I] (Dixon plot) and [S]/v vs. [I]. […] Kinetic parameters (KM, Vmax, KM app, Vmax app) were obtained through non-linear regression analysis (least squares fit) using the GraphPad Prism 8.01 software and inhibition constants were calculated using the following equations: (1) KM,app=KM1+[I]/Kia/1+[I]/Kib (2) Vmaxapp=Vmax/1+[I]/Kib
as §2

AChE = settings: cited from earlier work
[3] = [S] = 121 μM, Electrophorus electricus AChE, mean ± SD

T1 sequence (O42275 24-633): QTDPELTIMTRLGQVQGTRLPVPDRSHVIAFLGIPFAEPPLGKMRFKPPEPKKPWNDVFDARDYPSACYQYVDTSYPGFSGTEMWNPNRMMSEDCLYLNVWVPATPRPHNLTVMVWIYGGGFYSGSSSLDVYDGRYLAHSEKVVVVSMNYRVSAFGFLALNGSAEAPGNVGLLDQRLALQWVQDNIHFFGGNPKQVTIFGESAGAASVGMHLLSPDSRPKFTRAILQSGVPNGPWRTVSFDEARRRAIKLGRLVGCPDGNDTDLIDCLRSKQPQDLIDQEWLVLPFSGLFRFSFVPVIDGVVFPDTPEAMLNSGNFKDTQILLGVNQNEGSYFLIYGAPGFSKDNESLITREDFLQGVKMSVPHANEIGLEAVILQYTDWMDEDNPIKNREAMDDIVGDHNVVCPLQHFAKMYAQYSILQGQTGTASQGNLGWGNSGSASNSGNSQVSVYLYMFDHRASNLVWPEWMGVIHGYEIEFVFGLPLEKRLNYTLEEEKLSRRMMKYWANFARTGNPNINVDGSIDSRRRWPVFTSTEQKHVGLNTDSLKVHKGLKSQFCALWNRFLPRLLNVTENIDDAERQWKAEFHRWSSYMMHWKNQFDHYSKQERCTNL

For `CO[C@H]1O[C@H](COCc2cn(CCNc3c4c(nc5ccccc35)CCCC4)nn2)[C@@H](OCc2cn(CCNc3c4c(nc5ccccc35)CCCC4)nn2)[C@H](OCc2cn(CCNc3c4c(nc5ccccc35)CCCC4)nn2)[C@H]1OCc1cn(CCNc2c3c(nc4ccccc24)CCCC3)nn1` [Compound 3a], the IC50 [1] was 0.0437 ± 0.0073 µM, the “AChE rp (relative inhibition potency)” value [1] was 12.9 and the “AChE rp/n (inhibition potency on valency-corrected basis)” value [1] was 3.2. For the same compound, the “mode of inhibition of AChE” value ([2]; Cornish-Bowden method) was “Mixed inhibition”, the Ki ([2]; binding to enzyme-substrate complex, read-out: Kib (non-competitive inhibition constant)) was 0.045 ± 0.0059 µM and the Ki ([2]; binding to free enzyme, read-out: Kia (competitive inhibition constant)) was 0.0316 ± 0.002 µM.

In the case of `OCc1cn(CCNc2c3c(nc4ccccc24)CCCC3)nn1` [Compound 3b, (1-(2-((1,2,3,4-tetrahydroacridin-9-yl)amino)ethyl)-1H-1,2,3-triazol-4-yl)metanol], the IC50 [1] is reported as 0.565 ± 0.079 µM.

With `CO[C@H]1O[C@H](COCc2cn(CCCNc3c4c(nc5ccccc35)CCCC4)nn2)[C@@H](OCc2cn(CCCNc3c4c(nc5ccccc35)CCCC4)nn2)[C@H](OCc2cn(CCCNc3c4c(nc5ccccc35)CCCC4)nn2)[C@H]1OCc1cn(CCCNc2c3c(nc4ccccc24)CCCC3)nn1` [Compound 4a] the IC50 [1, 3] was 0.0602 ± 0.0055 µM, the “AChE rp (relative inhibition potency)” value [1] was 5.8 and the “AChE rp/n (inhibition potency on valency-corrected basis)” value [1] was 1.5.

For `OCc1cn(CCCNc2c3c(nc4ccccc24)CCCC3)nn1` [Compound 4b, (1-(3-((1,2,3,4-tetrahydroacridin-9-yl)amino)propyl)-1H-1,2,3-triazol-4-yl)metanol], the IC50 [1] was 0.348 ± 0.023 µM.

With `CO[C@H]1O[C@H](COCc2cn(CCCCCCNc3c4c(nc5ccccc35)CCCC4)nn2)[C@@H](OCc2cn(CCCCCCNc3c4c(nc5ccccc35)CCCC4)nn2)[C@H](OCc2cn(CCCCCCNc3c4c(nc5ccccc35)CCCC4)nn2)[C@H]1OCc1cn(CCCCCCNc2c3c(nc4ccccc24)CCCC3)nn1` [Compound 5a] the IC50 [1] was 0.0125 ± 0.0033 µM and the “AChE rp (relative inhibition potency)” value [1] was 1.0.

For `OCc1cn(CCCCCCNc2c3c(nc4ccccc24)CCCC3)nn1` [Compound 5b, (1-(6-((1,2,3,4-tetrahydroacridin-9-yl)amino)hexyl)-1H-1,2,3-triazol-4-yl)metanol], the “less active when connected to the central multivalent sugar scaffold” value [1] was 75% and the IC50 [1] was 0.0126 ± 0.0024 µM.

In the case of `CO[C@H]1O[C@H](COCc2cn(CCCCCCCCNc3c4c(nc5ccccc35)CCCC4)nn2)[C@@H](OCc2cn(CCCCCCCCNc3c4c(nc5ccccc35)CCCC4)nn2)[C@H](OCc2cn(CCCCCCCCNc3c4c(nc5ccccc35)CCCC4)nn2)[C@H]1OCc1cn(CCCCCCCCNc2c3c(nc4ccccc24)CCCC3)nn1` [Compound 6a], the IC50 [1, 3] is reported as 0.232 ± 0.021 µM and the “AChE rp (relative inhibition potency)” value [1] is reported as 0.03.

With `OCc1cn(CCCCCCCCNc2c3c(nc4ccccc24)CCCC3)nn1` [Compound 6b, (1-(8-((1,2,3,4-Tetrahydroacridin-9-yl)amino)octyl)-1H-1,2,3-triazol-4-yl)metanol] the “less active when connected to the central multivalent sugar scaffold” value [1] was “more than 99%” and the IC50 [1] was 0.0071 ± 0.001 µM.

For `CO[C@H]1O[C@H](CO)[C@@H](O)[C@H](O)[C@H]1O` [Methyl α-D-glucopyranoside, methyl α-D-glucopyranoside, reference compound], the “AChE inhibition (N.I.)” value ([1]; Tested at 100 μM inhibitor concentration, [S] = 121 μM) was “N.I.^d”.

For `c1ccc2c(NCCCCCCCNc3c4c(nc5ccccc35)CCCC4)c3c(nc2c1)CCCC3` [bis(7)tacrine], the “fold stronger AChE inhibitor than tacrine” value (AChE) is given as ~1000 fold.
